These are literature values, as cited in patent publication US20160174564A1, “BIOCIDE-FREE PREWETTED SPONGE CLOTH” (Kalle GmbH, priority 2014, published 2016).

The structures appear in SMILES notation.

For this data set the following is noted: saturated solutions of different salts; 20° C.

For the compound `[Cl-].[Li+]` [LiCl], the aw value was 0.112.
`[Cl-].[Cl-].[Mg+2]` [MgCl2]: the aw value is 0.327.
For `O=[N+]([O-])[O-].O=[N+]([O-])[O-].[Mg+2]` [Mg(NO3)2], the aw value is reported as 0.529.
As to `[Cl-].[Na+]` [NaCl], the aw value is listed as 0.753.
On to `[Cl-].[K+]` [KCl], for which the aw value is recorded as 0.843.
Regarding `[Br-].[Na+]` [NaBr], the aw value was 0.577.
`O=C([O-])[O-].[K+].[K+]` [Sample K2CO3, K2CO3]: the aw value is 0.438.
Turning to `[Cl-].[Cl-].[Sr+2]` [SrCl2], the aw value is recorded as 0.708.
